# From PubChem BioAssay (NCI)
#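 Interpolation was linear, between the two tested concentrations surrounding the appropriate level; five concentrations were tested over 48 hours in 96-well plates. GI50 = concentration required for 50% inhibition of growth. At the TGI there is no net growth.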
# Key:
# Experiment in all cases: DTP human tumour cell line panel, 48 h
# COLO 205 colon = test system: COLO 205 colon
# MDA-MB-231 breast = test system: MDA-MB-231 breast
# OVCAR-5 ovarian = test system: OVCAR-5 ovarian
# SNB-75 CNS = test system: SNB-75 CNS
# UACC-257 melanoma = test system: UACC-257 melanoma
# RXF 393 renal = test system: RXF 393 renal
# MALME-3M melanoma = test system: MALME-3M melanoma
# SK-MEL-28 melanoma = test system: SK-MEL-28 melanoma
# HCC-2998 colon = test system: HCC-2998 colon
# K-562 leukemia = test system: K-562 leukemia
# MDA-MB-468 breast = test system: MDA-MB-468 breast
# NCI/ADR-RES ovarian = test system: NCI/ADR-RES ovarian
# TK-10 renal = test system: TK-10 renal
# A498 renal = test system: A498 renal
# UACC-62 melanoma = test system: UACC-62 melanoma
# T-47D breast = test system: T-47D breast
# SK-OV-3 ovarian = test system: SK-OV-3 ovarian
# CAKI-1 renal = test system: CAKI-1 renal
# NCI-H522 lung = test system: NCI-H522 lung
# OVCAR-4 ovarian = test system: OVCAR-4 ovarian
# SF-539 CNS = test system: SF-539 CNS
# OVCAR-8 ovarian = test system: OVCAR-8 ovarian
# SR leukemia = test system: SR leukemia
# SNB-19 CNS = test system: SNB-19 CNS
# U251 CNS = test system: U251 CNS
# BT-549 breast = test system: BT-549 breast
# SW-620 colon = test system: SW-620 colon
# 786-0 renal = test system: 786-0 renal
# HS 578T breast = test system: HS 578T breast
# MOLT-4 leukemia = test system: MOLT-4 leukemia
# KM12 colon = test system: KM12 colon
# HCT-116 colon = test system: HCT-116 colon
# ACHN renal = test system: ACHN renal
# IGROV1 ovarian = test system: IGROV1 ovarian
# DU-145 prostate = test system: DU-145 prostate
# MCF7 breast = test system: MCF7 breast
# NCI-H226 lung = test system: NCI-H226 lung
# MDA-MB-435 = test system: MDA-MB-435
# SF-268 CNS = test system: SF-268 CNS
# LOX IMVI melanoma = test system: LOX IMVI melanoma
# EKVX NSCLC = test system: EKVX NSCLC
# UO-31 renal = test system: UO-31 renal
# CCRF-CEM leukemia = test system: CCRF-CEM leukemia
# HOP-92 NSCLC = test system: HOP-92 NSCLC
# PC-3 prostate = test system: PC-3 prostate
# HL-60(TB) leukemia = test system: HL-60(TB) leukemia
# SK-MEL-5 melanoma = test system: SK-MEL-5 melanoma
# NCI-H23 lung = test system: NCI-H23 lung
# OVCAR-3 ovarian = test system: OVCAR-3 ovarian
# HCT-15 colon = test system: HCT-15 colon
# M14 melanoma = test system: M14 melanoma
# SK-MEL-2 melanoma = test system: SK-MEL-2 melanoma
# HOP-62 NSCLC = test system: HOP-62 NSCLC
# SN12C renal = test system: SN12C renal
# SF-295 CNS = test system: SF-295 CNS
# RPMI-8226 leukemia = test system: RPMI-8226 leukemia
# A549 NSCLC = test system: A549 NSCLC
# HT29 colon = test system: HT29 colon
structure (smiles),measurement,setting,value
O=C(NN1C(=O)/C(=C/C=C/c2ccc([N+](=O)[O-])o2)SC1=S)c1ccccc1O,GI50,COLO 205 colon,957 nM
same,TGI,COLO 205 colon,2280 nM
same,GI50,MDA-MB-231 breast,257 nM
same,TGI,MDA-MB-231 breast,613 nM
same,GI50,OVCAR-5 ovarian,1840 nM
same,TGI,OVCAR-5 ovarian,3.3 µM
same,GI50,SNB-75 CNS,1290 nM
same,TGI,SNB-75 CNS,5.84 µM
same,GI50,UACC-257 melanoma,1720 nM
same,TGI,UACC-257 melanoma,3.6 µM
same,GI50,RXF 393 renal,1420 nM
same,TGI,RXF 393 renal,2760 nM
same,GI50,MALME-3M melanoma,223 nM
same,TGI,MALME-3M melanoma,507 nM
same,GI50,SK-MEL-28 melanoma,1680 nM
same,TGI,SK-MEL-28 melanoma,3.13 µM
same,GI50,HCC-2998 colon,1370 nM
same,TGI,HCC-2998 colon,2700 nM
same,GI50,K-562 leukemia,276 nM
same,TGI,K-562 leukemia,> 33.3 µM
same,GI50,MDA-MB-468 breast,1400 nM
same,TGI,MDA-MB-468 breast,3.07 µM
same,GI50,NCI/ADR-RES ovarian,1780 nM
same,TGI,NCI/ADR-RES ovarian,5.75 µM
same,GI50,TK-10 renal,1960 nM
same,TGI,TK-10 renal,4.19 µM
same,GI50,A498 renal,18.3 µM
same,TGI,A498 renal,32.6 µM
same,GI50,UACC-62 melanoma,675 nM
same,TGI,UACC-62 melanoma,1900 nM
same,GI50,T-47D breast,1630 nM
same,TGI,T-47D breast,3.23 µM
same,GI50,SK-OV-3 ovarian,2260 nM
same,TGI,SK-OV-3 ovarian,5.28 µM
same,GI50,CAKI-1 renal,1330 nM
same,TGI,CAKI-1 renal,2670 nM
same,GI50,NCI-H522 lung,262 nM
same,TGI,NCI-H522 lung,749 nM
same,GI50,OVCAR-4 ovarian,1720 nM
same,TGI,OVCAR-4 ovarian,3.72 µM
same,GI50,SF-539 CNS,1310 nM
same,TGI,SF-539 CNS,2670 nM
same,GI50,OVCAR-8 ovarian,366 nM
same,TGI,OVCAR-8 ovarian,1600 nM
same,GI50,SR leukemia,221 nM
same,TGI,SR leukemia,> 100 µM
same,GI50,SNB-19 CNS,1760 nM
same,TGI,SNB-19 CNS,3.34 µM
same,GI50,U251 CNS,1270 nM
same,TGI,U251 CNS,2620 nM
same,GI50,BT-549 breast,673 nM
same,TGI,BT-549 breast,1800 nM
same,GI50,SW-620 colon,196 nM
same,TGI,SW-620 colon,426 nM
same,GI50,786-0 renal,1110 nM
same,TGI,786-0 renal,2330 nM
same,GI50,HS 578T breast,2100 nM
same,TGI,HS 578T breast,7.47 µM
same,GI50,MOLT-4 leukemia,390 nM
same,TGI,MOLT-4 leukemia,7.56 µM
same,GI50,KM12 colon,1620 nM
same,TGI,KM12 colon,3.77 µM
same,GI50,HCT-116 colon,197 nM
same,TGI,HCT-116 colon,395 nM
same,GI50,ACHN renal,1460 nM
same,TGI,ACHN renal,2780 nM
same,GI50,IGROV1 ovarian,1230 nM
same,TGI,IGROV1 ovarian,2480 nM
same,GI50,DU-145 prostate,1590 nM
same,TGI,DU-145 prostate,3.02 µM
same,GI50,MCF7 breast,432 nM
same,TGI,MCF7 breast,2020 nM
same,GI50,NCI-H226 lung,1110 nM
same,TGI,NCI-H226 lung,2690 nM
same,GI50,MDA-MB-435,371 nM
same,TGI,MDA-MB-435,1380 nM
same,GI50,SF-268 CNS,1800 nM
same,TGI,SF-268 CNS,4.2 µM
same,GI50,LOX IMVI melanoma,194 nM
same,TGI,LOX IMVI melanoma,402 nM
same,GI50,EKVX NSCLC,1370 nM
same,TGI,EKVX NSCLC,2750 nM
same,GI50,UO-31 renal,1240 nM
same,TGI,UO-31 renal,2490 nM
same,GI50,CCRF-CEM leukemia,318 nM
same,TGI,CCRF-CEM leukemia,1490 nM
same,GI50,HOP-92 NSCLC,1680 nM
same,TGI,HOP-92 NSCLC,4.13 µM
same,GI50,PC-3 prostate,1920 nM
same,TGI,PC-3 prostate,4.94 µM
same,GI50,HL-60(TB) leukemia,1730 nM
same,TGI,HL-60(TB) leukemia,9.47 µM
same,GI50,SK-MEL-5 melanoma,771 nM
same,TGI,SK-MEL-5 melanoma,2030 nM
same,GI50,NCI-H23 lung,846 nM
same,TGI,NCI-H23 lung,2170 nM
same,GI50,OVCAR-3 ovarian,1230 nM
same,TGI,OVCAR-3 ovarian,2540 nM
same,GI50,HCT-15 colon,149 nM
same,TGI,HCT-15 colon,340 nM
same,GI50,M14 melanoma,298 nM
same,TGI,M14 melanoma,873 nM
same,GI50,SK-MEL-2 melanoma,663 nM
same,TGI,SK-MEL-2 melanoma,2060 nM
same,GI50,HOP-62 NSCLC,1620 nM
same,TGI,HOP-62 NSCLC,3.11 µM
same,GI50,SN12C renal,237 nM
same,TGI,SN12C renal,714 nM
same,GI50,SF-295 CNS,1790 nM
same,TGI,SF-295 CNS,3.42 µM
same,GI50,RPMI-8226 leukemia,379 nM
same,TGI,RPMI-8226 leukemia,2530 nM
same,GI50,A549 NSCLC,2980 nM
same,TGI,A549 NSCLC,10.5 µM
same,GI50,HT29 colon,1000 nM
same,TGI,HT29 colon,2780 nM
